Data reported in patent US4330550A, “Oxoimidazolinealkanoic acids and their salts and esters, their preparation and pharmaceutical compositions containing them” (A. Nattermann & Cie. GmbH, priority 1979, dated 1982).
Where a name gives a salt, the structure may show the parent alone.

These compounds were tested on collagen-induced aggregation of platelets (human plasma with a high platelet content) (assay: Inhibition of collagen-induced aggregation of thrombocytes in vitro (method of Born)). Settings: 0.3 μmol/ml.
Assay type: cell-based
Text: The aggregation of platelets in the presence of the compounds of the invention has been tested by the collagen-induced aggregation method of Born., Nature 4832/927, 29 (1962). The effect of the compounds in inhibiting thrombocyte aggregation was investigated in vitro on human plasma with a high platelet content.
The percentage inhibition of collagen-induced aggregation in vitro by compounds from the Examples indicated in Table 3, or combinations thereof with heparin, at a final concentration of 0.3 or 0.6 μmol of compound per ml of human plasma with a high platelet content, can be seen from the following Table.
For `O=C(O)CCCCCCCn1c(-c2ccccc2)c[nH]c1=O` [Example 1c, sodium salt of 8-(2-oxo-5-phenyl-4-imidazolin-1-yl)-caprylic acid], the “% inhibition compared with the control (collagen-induced aggregation)” value (from here on “% inhibition compared with the control”) was 80%. `O=C(O)CCCCCCn1c(-c2ccc(Cl)cc2)c[nH]c1=O` [Example 5c] was tested, and the “% inhibition compared with the control” value was 63%. In the case of `O=C(O)CCCCCCn1c(-c2ccccc2)c[nH]c1=O` [Example 2c], the “% inhibition compared with the control” value is reported as 46%.
